Converted amounts (≈) assume the structure as drawn.
Key:
Type in all cases: functional
[1] = system: Mycobacterium tuberculosis; assay: Antibacterial activity against isoniazid-resistant Mycobacterium tuberculosis RS-032 clinical isolate harboring katG S315T mutant assessed as reduction in bacterial growth after 7 days by resazurin assay
[2] = system: Mycobacterium tuberculosis; assay: Antibacterial activity against multidrug-resistant Mycobacterium tuberculosis PE-003 clinical isolate harboring inhA C(-15)T mutant assessed as reduction in bacterial growth after 7 days by resazurin assay
[3] = system: Mycobacterium tuberculosis; assay: Antibacterial activity against isoniazid-resistant Mycobacterium tuberculosis RS-036 clinical isolate harboring inhA C(-15)T mutant assessed as reduction in bacterial growth after 7 days by resazurin assay
[4] = system: Mycobacterium tuberculosis; assay: Selectivity ratio of MIC for isoniazid-resistant Mycobacterium tuberculosis RS-032 clinical isolate harboring katG S315T mutant to MIC for Mycobacterium tuberculosis H37Rv

SMILES	MIC [1] [µM]	MIC [2] [µM]	MIC [3] [µM]	Selectivity ratio [4]
COc1ccc2nc(C)cc(OCC(=O)Nc3ccc(C(F)(F)F)cc3)c2c1	1.6 (≈ 0.625 µg/mL)	0.1 (≈ 0.039 µg/mL)	0.8 (≈ 0.312 µg/mL)	–
COc1ccc2nc(C)cc(OCC(=O)Nc3ccccc3Cl)c2c1	1.75 (≈ 0.624 µg/mL)	0.11 (≈ 0.0392 µg/mL)	0.44 (≈ 0.157 µg/mL)	–
COc1ccc2nc(C)cc(OCC(=O)Nc3ccccc3)c2c1	1.93 (≈ 0.622 µg/mL)	0.24 (≈ 0.0774 µg/mL)	0.48 (≈ 0.155 µg/mL)	2
COc1ccc2nc(C)cc(OCC(=O)Nc3ccc(Cl)cc3)c2c1	0.87 (≈ 0.31 µg/mL)	0.06 (≈ 0.0214 µg/mL)	0.44 (≈ 0.157 µg/mL)	2
COc1ccc2nc(C)cc(OCC(=O)Nc3cccc(Cl)c3)c2c1	3.5 (≈ 1.25 µg/mL)	0.22 (≈ 0.0785 µg/mL)	0.87 (≈ 0.31 µg/mL)	–
COc1cccc(NC(=O)COc2cc(C)nc3ccc(OC)cc23)c1	7.08 (≈ 2.49 µg/mL)	0.44 (≈ 0.155 µg/mL)	1.77 (≈ 0.624 µg/mL)	2
COc1ccc2nc(C)cc(OCC(=O)Nc3ccccc3C)c2c1	0.93 (≈ 0.313 µg/mL)	0.11 (≈ 0.037 µg/mL)	0.46 (≈ 0.155 µg/mL)	2
COc1ccc2nc(C)cc(OCC(=O)NCc3ccccc3)c2c1	3.71 (≈ 1.25 µg/mL)	0.46 (≈ 0.155 µg/mL)	1.85 (≈ 0.622 µg/mL)	2
COc1ccc(NC(=O)COc2cc(C)nc3ccc(OC)cc23)c(OC)c1	0.81 (≈ 0.31 µg/mL)	0.2 (≈ 0.0765 µg/mL)	0.41 (≈ 0.157 µg/mL)	2
COc1ccc2nc(C)cc(OCC(=O)Nc3ccccc3OC)c2c1	0.88 (≈ 0.31 µg/mL)	0.06 (≈ 0.0211 µg/mL)	0.44 (≈ 0.155 µg/mL)	2
NNC(=O)c1ccncc1 [ISONIAZID]	>70	>70	>70	–
COc1ccc2nc(C)cc(OCC(=O)Nc3ccc4c(c3)OCO4)c2c1	3.41 (≈ 1.25 µg/mL)	0.21 (≈ 0.0769 µg/mL)	0.85 (≈ 0.311 µg/mL)	2
COc1ccc2nc(C)cc(OCC(=O)Nc3ccc4ccccc4c3)c2c1	0.84 (≈ 0.313 µg/mL)	0.05 (≈ 0.0186 µg/mL)	0.1 (≈ 0.0372 µg/mL)	2
COc1ccc(NC(=O)COc2cc(C)nc3ccc(OC)cc23)cc1	0.88 (≈ 0.31 µg/mL)	0.06 (≈ 0.0211 µg/mL)	0.44 (≈ 0.155 µg/mL)	2
COc1ccc2nc(C)cc(OCC(=O)Nc3ccc(Br)cc3)c2c1	0.78 (≈ 0.313 µg/mL)	0.05 (≈ 0.0201 µg/mL)	0.39 (≈ 0.156 µg/mL)	2

— ChEMBL document CHEMBL3804819, “2-(Quinolin-4-yloxy)acetamides Are Active against Drug-Susceptible and Drug-Resistant Mycobacterium tuberculosis Strains” (ACS Med Chem Lett, 2016)
